The subject of the assay is D-AMPH-induced hyperactivity. As to the kind of experiment: Inhibition of D-amphetamine-induced hyperactivity. Format: in vivo. The note with it: rats, p.o.; D-AMPH 1 mg/kg i.p.; distance traveled over 2 h. The protocol: Male Sprague–Dawley rats (200–250 g, N=4/treatment group) were habituated to Lucite locomotor activity chambers comprising an AccuScan activity monitoring system (AccuScan Instruments, Inc., Columbus, OH) were maintained in a quiet observation room kept under low light conditions. […] The rats were briefly removed from the activity chambers 60 min later to receive an injection of D-amphetamine hydrochloride (D-AMPH; 1 mg/kg in 1 ml/kg, i.p.). The animals were returned to the activity chambers, and locomotor activity was then recorded for 2 h using system software. Activity was quantitated as distance traveled (cm) over 2 h for each group. Inhibitory activity was calculated as the percent of total activity observed at each dose level of each drug versus animals receiving D-AMPH alone. An ID50 for inhibition of D-AMPH-induced hyperactivity was calculated for each compound.

Values joined by “and” are separate entries in the source; they are usually repeats but may differ in a detail not shown here. Equal entries are not always repeated.

`CN1CCN2c3c(cccc31)[C@@H]1CN(CCCC(=O)c3ccc(F)cc3)CC[C@@H]12` [ITI-007, 1-(4-fluoro-phenyl)-4-((6bR,10aS)-3-methyl-2,3,6b,9,10,10a-hexahydro-1H,7H-pyrido[3′,4′:4,5]pyrrolo[1,2,3-de]quinoxalin-8-yl)-butan-1-one]: the “ID50, inhibition of D-AMPH-induced hyperactivity” value was 0.95 mg/kg and ~ 1.0 mg/kg.

The values above are taken from publication PMC4302236, “Functional profile of a novel modulator of serotonin, dopamine, and glutamate neurotransmission” (Psychopharmacology, 2014).
